Experiments:
Type in all cases: cell-based
[1] = tested on: SK-N-SH neuroblastoma cells; experiment: Anti-proliferative assay (cell-titre luminescent), SK-N-SH; conditions: Homo sapiens, 72 hours, luminescence
Method: (§1) The ability of compounds 2002, 2009 and 2013-2064 to inhibit the proliferation of cancer cells representative of neuroblastoma, melanoma, prostate cancer, colorectal cancer, non-small cell lung carcinoma, and triple negative breast cancer was assessed. These studies were conducted by contract research (GVK-BIO). Briefly, a pre-determined number of cells as calculated from cell growth assays for each of the cell lines employed were seeded into their respective culture medium (using ATCC culture parameters—http://www.atcc.org) and cultured for 24 h at 37° C. and 5% CO2 in 96-well culture plates. Once attached, each cell line was then exposed to various concentrations of each respective analogue (30, 10, 3, 1, 0.3 and 0.1 μM), cultured for a further 72 hours and exposed to cell-titre luminescent reagent (100 μL/well) for a further 30 minutes). Luminescence was captured using an EnVision multilabel reader and the data for each analogue concentration compared against no treatment control. Cell viability was normalized to control (vehicle alone) and dose-response curves, and half maximal effective concentration (EC50) values were determined using Graph Pad Prism 6 (nonlinear regression sigmoidal dose-response variable slope).

[2] = tested on: CaCo2 colorectal cancer cells; experiment: Anti-proliferative assay (cell-titre luminescent), CaCo2; conditions: Homo sapiens, Caco-2; CaCo2, 72 hours, luminescence
Method: as §1

[3] = tested on: MDA-MB-231 breast cancer cells; experiment: Anti-proliferative assay (cell-titre luminescent), MDA-MB-231; conditions: Homo sapiens; MDA-MB-231, 72 hours, luminescence
Method: as §1

[4] = tested on: SK-Mel-28 melanoma cells; experiment: Anti-proliferative assay (cell-titre luminescent), SK-Mel-28; conditions: Homo sapiens; SK-Mel-28, 72 hours, luminescence
Method: as §1

[5] = tested on: DU145 prostate cancer cells; experiment: Anti-proliferative assay (cell-titre luminescent), DU145; conditions: Homo sapiens, DU-145; DU145, 72 hours, luminescence
Method: as §1

[6] = tested on: PC3 prostate cancer cells; experiment: Anti-proliferative assay (cell-titre luminescent), PC3; conditions: PC3, 72 hours, luminescence
Method: as §1

[7] = tested on: A549 lung (NSLC) cells; experiment: Anti-proliferative assay (cell-titre luminescent), A549; conditions: Homo sapiens; A549, 72 hours, luminescence
Method: as §1

SMILES	IC50 [1]	IC50 [2]	IC50 [3]	IC50 [4]	IC50 [5]	IC50 [6]	IC50 [7]
CCOc1ccc2c(c1)c(C(=O)N1CCN(CCc3ccc(F)cc3)CC1)c(C)n2CCCN(C)C [Compound 2062, (1-(3-(dimethylamino)propyl)-5-ethoxy-2-methyl-1H-indol-3-yl)(4-(4-fluorophenethyl)piperazin-1-yl)methanone]	20.6 µM	18.6 µM	8.1 µM	9 µM	> 30 µM	13.1 µM	> 30 µM
CCN(CC)CCCn1c(C)c(C(=O)N2CCN(CCc3ccccc3)CC2)c2cc(OC)ccc21 [Compound 2055, (1-(3-(diethylamino)propyl)-5-methoxy-2-methyl-1H-indol-3-yl)(4-phenethylpiperazin-1-yl)methanone]	> 30 µM	> 30 µM	> 30 µM	1.1 µM	> 30 µM	> 30 µM	> 30 µM
COc1cccc(CCN2CCN(C(=O)/C=C/c3c(C)n(CCCN(C)C)c4ccc(OC)cc34)CC2)c1 [Compound 2022, (E)-3-(1-(3-(dimethylamino)propyl)-5-methoxy-2-methyl-1H-indol-3-yl)-1-(4-(3-methoxyphenethyl)piperazin-1-yl)prop-2-en-1-one]	12.5 µM	21.5 µM	11.3 µM	17.2 µM	22 µM	7.6 µM	12.7 µM
CCN(CC)CCCn1c(C)c(/C=C/C(=O)N2CCN(CCc3ccc4c(c3)OCO4)CC2)c2cc(OC)ccc21 [Compound 2025, (E)-1-(4-(2-(benzo[d][1,3]dioxol-5-yl)ethyl)piperazin-1-yl)-3-(1-(3-(diethylamino)propyl)-5-methoxy-2-methyl-1H-indol-3-yl)prop-2-en-1-one]	4.1 µM	16.5 µM	30 µM	4.1 µM	15.6 µM	7.6 µM	4.7 µM
CCOc1ccc2c(c1)c(/C=C/C(=O)N1CCN(CCc3ccc(F)cc3)CC1)c(C)n2CCCN(CC)CC [Compound 2036, (E)-3-(1-(3-(diethylamino)propyl)-5-ethoxy-2-methyl-1H-indol-3-yl)-1-(4-(4-fluorophenethyl)piperazin-1-yl)prop-2-en-1-one]	1.5 µM	5.1 µM	4.4 µM	3.2 µM	4.7 µM	4.9 µM	4.3 µM
COc1ccc(CCN2CCN(C(=O)c3c(C)n(CCCN(C)C)c4ccccc34)CC2)cc1 [Compound 2039, (1-(3-(dimethylamino)propyl)-2-methyl-1H-indol-3-yl)(4-(4-methoxyphenethyl)piperazin-1-yl)methanone]	12.6 µM	4.8 µM	16.6 µM	11 µM	72.6 µM	7.6 µM	44 µM
COc1ccc2c(c1)c(/C=C/C(=O)N1CCN(CCc3ccc4c(c3)OCO4)CC1)c(C)n2CCCN(C)C [Compound 2020, (E)-1-(4-(2-(benzo[d][1,3]dioxol-5-yl)ethyl)piperazin-1-yl)-3-(1-(3-(dimethylamino)propyl)-5-methoxy-2-methyl-1H-indol-3-yl)prop-2-en-1-one]	3.9 µM	4.5 µM	5.1 µM	3.5 µM	5.7 µM	5.1 µM	3.5 µM
Cc1c(C(=O)N2CCN(CCc3ccc(F)cc3)CC2)c2ccccc2n1CCCN(C)C [Compound 2038, (1-(3-(dimethylamino)propyl)-2-methyl-1H-indol-3-yl)(4-(4-fluorophenethyl)piperazin-1-yl)methanone]	> 30 µM	> 30 µM	> 30 µM	> 30 µM	> 30 µM	> 30 µM	> 30 µM
CCOc1ccc2c(c1)c(C(=O)N1CCN(CCc3ccc(F)cc3)CC1)c(C)n2CCCN(CC)CC [Compound 2063, (1-(3-(diethylamino)propyl)-5-ethoxy-2-methyl-1H-indol-3-yl)(4-(4-fluorophenethyl)piperazin-1-yl)methanone]	5.3 µM	4.1 µM	3 µM	3.5 µM	13 µM	7.2 µM	10.9 µM
COc1ccc2c(c1)c(C(=O)N1CCN(CCc3cccc(F)c3)CC1)c(C)n2CCCN1CCN(C)CC1 [Compound 2059, (4-(3-fluorophenethyl)piperazin-1-yl)(5-methoxy-2-methyl-1-(3-(4-methylpiperazin-1-yl)propyl)-1H-indol-3-yl)methanone]	4.2 µM	19.6 µM	7 µM	3.8 µM	10.1 µM	9.2 µM	10.2 µM
COc1cccc(CCN2CCN(C(=O)c3c(C)n(CCCN4CCN(C)CC4)c4ccc(OC)cc34)CC2)c1 [Compound 2060, (5-methoxy-2-methyl-1-(3-(4-methylpiperazin-1-yl)propyl)-1H-indol-3-yl)(4-(3-methoxyphenethyl)piperazin-1-yl)methanone]	10.8 µM	> 30 µM	6.1 µM	7.5 µM	> 30 µM	> 30 µM	> 30 µM
COc1cccc(CCN2CCN(C(=O)/C=C/c3c(C)n(CCCN(C)C)c4ccccc34)CC2)c1 [Compound 2016, (E)-3-(1-(3-(dimethylamino)propyl)-2-methyl-1H-indol-3-yl)-1-(4-(3-methoxyphenethyl)piperazin-1-yl)prop-2-en-1-one]	5 µM	8.9 µM	10.8 µM	4.1 µM	5.4 µM	5.8 µM	4.8 µM
CCN(CC)CCCn1c(C)c(/C=C/C(=O)N2CCN(CCc3cccc(OC)c3)CC2)c2cc(OC)ccc21 [Compound 2027, (E)-3-(1-(3-(diethylamino)propyl)-5-methoxy-2-methyl-1H-indol-3-yl)-1-(4-(3-methoxyphenethyl)piperazin-1-yl)prop-2-en-1-one]	8.2 µM	12.3 µM	5.6 µM	3.8 µM	51.9 µM	9.3 µM	23.5 µM
Cc1c(/C=C/C(=O)N2CCN(CCc3cccc(F)c3)CC2)c2ccccc2n1CCCN(C)C [Compound 2015, (E)-3-(1-(3-(dimethylamino)propyl)-2-methyl-1H-indol-3-yl)-1-(4-(3-fluorophenethyl)piperazin-1-yl)prop-2-en-1-one]	8.8 µM	15.9 µM	21.1 µM	3.9 µM	39.2 µM	12.4 µM	14.1 µM
CCN(CC)CCCn1c(C)c(C(=O)N2CCN(CCc3cccc(F)c3)CC2)c2cc(OC)ccc21 [Compound 2053, (1-(3-(diethylamino)propyl)-5-methoxy-2-methyl-1H-indol-3-yl)(4-(3-fluorophenethyl)piperazin-1-yl)methanone]	4.8 µM	12.2 µM	12.6 µM	4.7 µM	13.6 µM	11 µM	13.5 µM
COc1cccc(CCN2CCN(C(=O)c3c(C)n(CCCN(C)C)c4ccccc34)CC2)c1 [Compound 2042, (1-(3-(dimethylamino)propyl)-2-methyl-1H-indol-3-yl)(4-(3-methoxyphenethyl)piperazin-1-yl)methanone]	> 30 µM	> 30 µM	> 30 µM	> 30 µM	> 30 µM	> 30 µM	> 30 µM

Reference: US20170157135A1 (Novogen Limited, priority 2013, published 2017)
